Results as given in patent publication US20150133341A1, “Intra-Operative Cancer Diagnosis Based on a Hyperpolarized Marker” (ALBEDA INNOVATIONS APS, priority 2012, published 2015).

Tested on: isolated CE-1 enzyme from porcine liver
Assay: CE-1 activity on short chain esters, 1H NMR
Assay type: biochemical
Settings: 37° C.; for k: 26 μmol substrate, conversion over 60 min
Description: To measure almost exclusively the contribution of carboxyl esterase activity from the CE-2 isoform, human breast cancer cells (MCF-7) were employed. These cells are known from literature to express CE-2 but not to express CE-1 (Byun et al, 2008, Cancer letters 266:238-48). A group of esters was investigated as substrates for CE-1, which contained different structural features. These consisted of esters of un-substituted acids (examples are ethyl acetate, ethyl butyrate, methyl butyrate), esters of acids substituted on C2 (examples are ethyl lactate and ethyl 2-acetoxy propanoate), esters of acids substituted on C3 (examples are ethyl 3-hydroxy butyrate and ethyl 3-acetoxy butanoate), esters of ring closed acids (example ethyl pyroglutamate), esters of di-acids (examples are diethyl succinate and dimethyl succinate), esters of tri-acids (example triethyl citrate), ethyl esters of beta-keto acids (example ethyl acetoacetate). Also esters with large alcohol groups and small acid groups were investigated. In this group, the acid part of the molecule was always acetate and different structural properties of the alcohol were investigated. These consisted of esters of un-substituted alcohols (examples ethyl acetate and butyl acetate), esters of branched chain alcohols (examples t-butyl acetate, ethyl 3-acetoxy butanoate and 2-acetoxy propionate), esters of aromatic alcohols (example benzyl acetate), esters of diols (example ethyleneglycol diacetate), esters of triols (example triacetin). […] Similarly, a group of esters which contained different structural features was investigated as substrates for CE-2. CE-2 substrates are described in the literature to consist of a small acid group and a larger alcohol group. All included esters were acetate esters (i.e. esters of acetic acid) in the interest of keeping the acid moiety the smallest possible. The acetate esters measured for CE-2 activity were therefore the same as those measured in the second group of possible substrates for CE-1.
The CE-1 experiments were performed with commercially available CE-1 from porcine liver. Individual samples of the substrates were all prepared the following way: 26 μmol was weighted in an eppendorf tube. 550 μl deuterated phosphate buffer (200 mM, pH 7.5) was added and the substrate was brought into solution by whirl mixing. The solution was transferred to a 5 mm NMR tube and inserted in the spectrometer at 37° C. A reference experiment was acquired on the substrate solution without enzyme after which 10 μl of an esterase stock solution (37 U/ml in deuterated phosphate buffer) was added in the top of the tube. The sample was mixed and returned to the spectrometer. A series of thermal 1D ^1H NMR experiments were recorded every 5 min for 60 min. The data were analysed with MNOVA software and measured as percentage conversion of substrate calculated to account for the amount of substrate converted over 60 min. The numbers are given in μmol/min.

Structure (SMILES)	k (μmol/min), acetate ester (hydrolysis of the acetate ester function, 60 min) [µmol/min]	k (μmol/min), ethyl ester (hydrolysis of the ethyl ester function, 60 min) [µmol/min]	k [µmol/min]
CCOC(=O)CC(C)OC(C)=O (stereo not shown) [ethyl 3-acetoxy butanoate]	0	0.08	–
CC(=O)OCc1ccccc1 [Benzyl acetate]	–	–	0.07
CC(=O)OCC(COC(C)=O)OC(C)=O [Tri-acetin]	–	–	0.02
